According to patent US11440884B2, “Compounds, salts thereof and methods for treatment of diseases” (ACADIA PHARMACEUTICALS INC., priority 2017, dated 2022):

molecular target: 5-HT2A receptor (Homo sapiens (Human), UniProt P28223); assay: Receptor Selection and Amplification (R-SAT) functional antagonist assay; details: not given;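 also: Read-out is β-galactosidase marker gene activity with ONPG substrate, measured after five days of growth in 96-well plates holding the test compound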
Sequence (P28223 whole entry): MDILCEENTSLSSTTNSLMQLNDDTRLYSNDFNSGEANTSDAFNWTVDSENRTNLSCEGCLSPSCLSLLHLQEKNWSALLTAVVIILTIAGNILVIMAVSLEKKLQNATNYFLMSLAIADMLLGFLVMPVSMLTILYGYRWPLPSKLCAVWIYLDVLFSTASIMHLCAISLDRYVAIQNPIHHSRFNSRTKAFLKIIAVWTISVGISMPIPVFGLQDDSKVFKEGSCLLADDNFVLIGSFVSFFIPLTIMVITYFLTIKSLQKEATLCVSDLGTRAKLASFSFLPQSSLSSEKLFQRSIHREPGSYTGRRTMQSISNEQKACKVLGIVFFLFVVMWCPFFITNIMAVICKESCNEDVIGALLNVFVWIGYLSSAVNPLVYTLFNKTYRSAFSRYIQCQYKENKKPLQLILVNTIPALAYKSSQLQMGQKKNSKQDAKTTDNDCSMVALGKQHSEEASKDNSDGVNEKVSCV

SMILES	5-HT2a pKi	Ki [µM]
CC(C)Oc1ccc(CC(=O)N(Cc2ccc(F)c(F)c2F)C2CCN(C)CC2)cc1.O=C(O)C(F)(F)F [Compound 34, N-(1-methylpiperidin-4-yl)-2-[4-(propan-2-yloxy)phenyl]-N-[(2,3,4-trifluorophenyl)methyl]acetamide; trifluoroacetic acid]	7.4	–
CC(=O)O.COc1cc(F)c(CN(C(=O)OCc2ccc(OCC(C)C)cc2)C2CCN(C)CC2)c(F)c1 [Compound 36, [4-(2-methylpropoxy)phenyl]methyl N-[(2,6-difluoro-4-methoxyphenyl)methyl]-N-(1-methylpiperidin-4-yl)carbamate; acetic acid]	9.0	–
COc1ccc(CN(C(=O)OCc2ccc(OC(C)C)cc2)C2CCN(C)CC2)c(F)c1 [Compound 41, [4-(propan-2-yloxy)phenyl]methyl N-[(2-fluoro-4-methoxyphenyl)-methyl]-N-(1-methylpiperidin-4-yl)carbamate]	–	0.00251
CC(C)COc1ccc(CC(=O)N(Cc2ccc(Cl)cc2C(F)(F)F)C2CCN(C)CC2)cc1 [Compound 50, N-{[4-chloro-2-(trifluoromethyl)phenyl]methyl}-N-(1-methylpiperidin-4-yl)-2-[4-(2-methylpropoxy)phenyl]acetamide; trifluoroacetic acid]	–	200
Cc1cc(F)ccc1CN(C(=O)OCc1ccc(OC(C)C)cc1)C1CCN(C)CC1.O=C(O)C(F)(F)F [Compound 56, [4-(propan-2-yloxy)phenyl]methyl N-[(4-fluoro-2-methylphenyl)-methyl]-N-(1-methylpiperidin-4-yl)carbamate; trifluoroacetic acid]	7.8	–
COc1ccc(CN(C(=O)OCc2ccc(OC(C)C)cc2)C2CCN(C)CC2)c(Cl)c1.O=C(O)C(F)(F)F [Compound 57, [4-(propan-2-yloxy)phenyl]methyl N-[(2-chloro-4-methoxy-phenyl)methyl]-N-(1-methylpiperidin-4-yl)carbamate; trifluoroacetic acid]	7.8	–

same assay, conditions: R-SAT, transfected NIH3T3 cells; guidance: high affinity pKi≥8.4, moderate affinity pKi≥7.7

SMILES	5-HT2a pKi
CC(C)COc1ccc(COC(=O)N(Cc2ccc(F)c(F)c2F)C2CCN(C)CC2)cc1 [Compound 37, [4-(2-methylpropoxy)phenyl]methyl N-(1-methylpiperidin-4-yl)-N-[(2,3,4-trifluorophenyl)methyl]carbamate]	8.9
CC(C)Oc1ccc(COC(=O)N(Cc2ccc(Cl)cc2F)C2CCN(C)CC2)cc1 [Compound 38, [4-(propan-2-yloxy)phenyl]methyl N-[(4-chloro-2-fluorophenyl)-methyl]-N-(1-methylpiperidin-4-yl)carbamate]	9.3
CN1CCC(N(Cc2ccc(F)cc2F)C(=O)OCc2ccc(OCCF)cc2)CC1 [Compound 39, [4-(2-fluoroethoxy)phenyl]methyl N-[(2,4-difluorophenyl)methyl]-N-(1-methylpiperidin-4-yl)carbamate]	9.8
CCCCOc1ccc(COC(=O)N(Cc2ccc(F)cc2F)C2CCN(C)CC2)cc1 [Compound 40, (4-butoxyphenyl)methyl N-[(2,4-difluorophenyl)methyl]-N-(1-methylpiperidin-4-yl)carbamate]	8.9
COC(=O)C(C)(C)CN1CCC(N(Cc2ccc(F)cc2F)C(=O)OCc2ccc(OC(C)C)cc2)CC1 [Compound 42, methyl 3-(4-{[(2,4-difluorophenyl)methyl]({[4-(propan-2-yloxy)phenyl]methoxy}carbonyl)amino}piperidin-1-yl)-2,2-dimethylpropanoate]	8.0
CC(C)Oc1ccc(COC(=O)N(Cc2ccc(F)cc2F)C2CCN(CC(C)(C)C(=O)O)CC2)cc1 [Compound 43, 3-(4-{[(2,4-difluorophenyl)methyl]({[4-(propan-2-yloxy)phenyl]-methoxy}carbonyl)amino}piperidin-1-yl)-2,2-dimethylpropanoic acid]	8.5
CCN1CCC(N(Cc2ccc(F)cc2F)C(=O)OCc2ccc(OC(C)C)cc2)CC1 [Compound 44, [4-(propan-2-yloxy)phenyl]methyl N-[(2,4-difluorophenyl)methyl]-N-(1-ethylpiperidin-4-yl)carbamate]	9.4
CC(C)Oc1ccc(COC(=O)N(Cc2ccc(F)cc2F)C2CCN(C3CC3)CC2)cc1 [Compound 45, [4-(propan-2-yloxy)phenyl]methyl N-(1-cyclopropylpiperidin-4-yl)-N-[(2,4-difluorophenyl)methyl]carbamate]	8.6
CC(C)Oc1ccc(COC(=O)N(Cc2ccc(F)cc2F)C2CCN(C3COC3)CC2)cc1 [Compound 46, [4-(propan-2-yloxy)phenyl]methyl N-[(2,4-difluorophenyl)methyl]-N-[1-(oxetan-3-yl)piperidin-4-yl]carbamate]	7.6
COc1ccc(CN(C(=O)Cc2ccc(OCC(C)C)cc2)C2CCN(C)CC2)c(F)c1 [Compound 47, N-[(2-fluoro-4-methoxyphenyl)methyl]-N-(1-methylpiperidin-4-yl)-2-[4-(2-methylpropoxy)phenyl]acetamide]	8.1
CC(C)Oc1ccc(/C=C/C(=O)N(Cc2ccc(F)cc2F)C2CCN(C)CC2)cc1 [Compound 48, (2E)-N-[(2,4-difluorophenyl)methyl]-N-(1-methylpiperidin-4-yl)-3-[4-(propan-2-yloxy)phenyl]prop-2-enamide]	7.4
CC(C)COc1ccc(CC(=O)N(Cc2ccc(F)cc2OC(F)(F)F)C2CCN(C)CC2)cc1.O=C(O)C(F)(F)F [Compound 51, N-{[4-fluoro-2-(trifluoromethoxy)phenyl]methyl}-N-(1-methyl-piperidin-4-yl)-2-[4-(2-methylpropoxy)phenyl]acetamide; trifluoroacetic acid]	6.7
Cc1cc(F)ccc1CN(C(=O)Cc1ccc(OCC(C)C)cc1)C1CCN(C)CC1.O=C(O)C(F)(F)F [Compound 52, N-[(4-fluoro-2-methylphenyl)methyl]-N-(1-methylpiperidin-4-yl)-2-[4-(2-methylpropoxy)phenyl]acetamide; trifluoroacetic acid]	6.7
COc1ccc(CN(C(=O)Cc2ccc(OCC(C)C)cc2)C2CCN(C)CC2)c(Cl)c1.O=C(O)C(F)(F)F [Compound 53, N-[(2-chloro-4-methoxyphenyl)methyl]-N-(1-methylpiperidin-4-yl)-2-[4-(2-methylpropoxy)phenyl]acetamide; trifluoroacetic acid]	6.9
CC(C)COc1ccc(COC(=O)N(Cc2ccc(F)cc2Cl)C2CCN(C)CC2)cc1 [Compound 58, [4-(2-methylpropoxy)phenyl]methyl N-[(2-chloro-4-fluorophenyl)methyl]-N-(1-methylpiperidin-4-yl)carbamate]	8.1
CC(C)COc1ccc(CC(=O)N(Cc2ccc(Cl)cc2Cl)C2CCN(C)CC2)cc1.O=C(O)C(F)(F)F [Compound 59, N-[(2,4-dichlorophenyl)methyl]-N-(1-methylpiperidin-4-yl)-2-[4-(2-methylpropoxy)phenyl]acetamide; trifluoroacetic acid]	6.6
CC(C)Oc1ccc(CC(=O)N(Cc2ccc(Cl)cc2Cl)C2CCN(C)CC2)cc1.O=C(O)C(F)(F)F [Compound 60, N-[(2,4-dichlorophenyl)methyl]-N-(1-methylpiperidin-4-yl)-2-[4-(propan-2-yloxy)phenyl]acetamide; trifluoroacetic acid]	6.5
